In US20240190887A1, “COMPOUND USED AS SHP2 INHIBITOR AND USE THEREOF” (TYK MEDICINES, INC., priority 2021, published 2024):

Key:
MV4-11 cells = experiment: Compound activity in MV4-11 cells (72 hr, cell viability by CTG method); format: cell-based; details: Homo sapiens, 72 hr incubation
Procedure: MV4-11 cells in logarithmic growth phase were taken, prepared into cell suspension, inoculated in 96-well plates at 160 uL/well with an inoculation density of 5000 cells/well, and cultured overnight in a 37° C. cell culture incubator. A 5× solution of the compound to be tested was prepared with 4-fold gradient dilution, and a total of 8 concentrations with double duplicate wells. The solution of the compound to be tested was added into 96-well plate at 40 uL/well, and the blank and control wells were added with corresponding volume of solvent, shaken and mixed well, and then incubated in 37° C. cell incubator for 72 hr, and the cell viability was detected by CTG method.
Equation (Sample−blank)/(control−blank)*100% was used to convert raw data to inhibition rate, and the IC50 value could be obtained by curve fitting with four parameters (obtained with “log(inhibitor) vs. response—Variable slope” model in GraphPad Prism), and the results are shown in Table III. (In the table below, the following designations are used: <100 nM=A; 100-500 nM=B; >500 nM=C).

full-length SHP2 protein = molecular target: T1, full-length SHP2 protein (Homo sapiens, UniProt Q06124); experiment: In vitro SHP2 enzyme activity inhibition (DiFMUP substrate, SHP2 activating peptide); format: biochemical; details: full-length SHP2 protein with activating peptide, 8 concentrations, read-out: IC50 of compounds inhibiting SHP2 enzyme activity
T1 construct: Purified full-length SHP2 protein (Kamed Bio-Tianjin); purchased Kamed Bio-Tianjin
T1 sequence (Q06124 1-593): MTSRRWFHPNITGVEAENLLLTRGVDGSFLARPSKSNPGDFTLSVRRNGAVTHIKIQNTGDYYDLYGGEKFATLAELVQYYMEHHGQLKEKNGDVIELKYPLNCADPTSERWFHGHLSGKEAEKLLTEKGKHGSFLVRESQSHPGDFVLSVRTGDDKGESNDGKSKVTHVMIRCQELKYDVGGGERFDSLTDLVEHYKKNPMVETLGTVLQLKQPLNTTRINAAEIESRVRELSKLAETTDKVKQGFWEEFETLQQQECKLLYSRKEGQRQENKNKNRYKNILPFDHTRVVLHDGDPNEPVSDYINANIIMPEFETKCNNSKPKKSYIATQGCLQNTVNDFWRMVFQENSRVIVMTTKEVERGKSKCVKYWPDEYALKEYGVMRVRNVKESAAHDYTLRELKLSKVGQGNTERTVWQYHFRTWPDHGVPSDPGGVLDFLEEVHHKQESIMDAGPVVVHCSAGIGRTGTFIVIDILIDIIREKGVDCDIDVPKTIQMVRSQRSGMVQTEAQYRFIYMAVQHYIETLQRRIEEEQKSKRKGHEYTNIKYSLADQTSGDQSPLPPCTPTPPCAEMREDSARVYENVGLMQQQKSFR
Procedure: • a) Purified full-length SHP2 protein (Kamed Bio-Tianjin) • b) SHP2 activating peptide (BPS Bioscience). • c) DiFMUP. • d) Reaction buffer (120 mM HEPES pH 7.2, 200 mM NaCl, 1 mM EDTA, 0.002% Brij35), added with 0.04% BSA after autoclave, stored at 4° C.; diluted to 1× before use, and added with 2 mM DTT.
• a) The 384-well plates were filled with 10 uL solution of compound to be tested (No. 2), 3-fold gradient dilution, totaling 8 concentrations; • b) The sample wells to be tested were added with 5 uL of […] activating peptide (No. 4, 2 uM) and 5 uL of 4×full-length SHP2 protein (0.88 nM), control wells were free of inhibitor, and blank wells were free of SHP2 activating peptide and inhibitor; • c) 384-well plate was sealed, mixed well and incubated at room temperature for 1 hr; • d) After adding 5 uL 5×DiFMUP (125 uM), 384-well plate was sealed, mixed well and incubated at room temperature for 1 hr, and then detected by En Vision;
% Inhibition=[1−(RFUsample−RFUblank)/(RFUtotal−RFUblank)]×100
Non-linear regression analysis was performed using Graphpad 8.0, and the IC50 values for each compound were obtained by fitting a curve of enzyme activity with compound concentration through the equation Y=Bottom+(Top−Bottom)/(1+10^((LogIC50−X)*Hill Slope)).

IC50 (MV4-11 cells) | IC50 (full-length SHP2 protein) | Compound
< 100 nM | < 50 nM | C[C@@H]1OCC2(CCN(c3nc4cnn(-c5ccc6cnn(C)c6c5)c4nc3CO)CC2)[C@@H]1N [Compound C4]
< 100 nM | < 50 nM | C[C@@H]1OCC2(CCN(c3nc4cnn(-c5cccc6c5ccn6C)c4nc3CO)CC2)[C@@H]1N [Compound C5]
< 100 nM | < 50 nM | C[C@@H]1OCC2(CCN(c3nc4cnn(-c5ccc6nn(C)cc6c5Cl)c4nc3CO)CC2)[C@@H]1N [Compound C6]
< 100 nM | < 50 nM | C[C@@H]1OCC2(CCN(c3nc4cnn(-c5ccc6c(cnn6C)c5)c4nc3CO)CC2)[C@@H]1N [Compound C11]
< 100 nM | < 50 nM | C[C@@H]1OCC2(CCN(c3nc4cnn(-c5ccc6ccn(C)c6c5)c4nc3CO)CC2)[C@@H]1N [Compound C12]
 | < 50 nM | C[C@@H]1OCC2(CCN(c3nc4cnn(-c5cccc6c5CCN6C)c4nc3CO)CC2)[C@@H]1N [Compound C13]
 | < 50 nM | C[C@@H]1OCC2(CCN(c3nc4cnn(-c5ccc6cn(C)nc6c5)c4nc3CO)CC2)[C@@H]1N [Compound C14]
< 100 nM | < 50 nM | C[C@@H]1OCC2(CCN(c3nc4cnn(-c5ccc6cn[nH]c6c5)c4nc3CO)CC2)[C@@H]1N [Compound C15]
 | < 50 nM | C[C@@H]1OCC2(CCN(c3nc4cnn(-c5ccc6cnn(C)c6c5)c4nc3C(F)F)CC2)[C@@H]1N [Compound C16]
< 100 nM | < 50 nM | C[C@@H]1OCC2(CCN(c3nc4cnn(-c5ccc6nnn(C)c6c5)c4nc3CO)CC2)[C@@H]1N [Compound C17]
 | < 50 nM | CCn1ncc2ccc(-n3ncc4nc(N5CCC6(CC5)CO[C@@H](C)[C@H]6N)c(CO)nc43)cc21 [Compound C18]
< 100 nM | < 50 nM | Cc1nc(N2CCC3(CC2)CO[C@@H](C)[C@H]3N)c(CO)nc1Sc1ccnc(N)c1Cl [RMC-4630, reference compound]
100 to 500 nM | 50 to 500 nM | C[C@@H]1OCC2(CCN(c3nc4cnn(-c5ccnc(N)c5Cl)c4nc3CO)CC2)[C@@H]1N [WO2021148010A1 Example 5, reference compound]
